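Compound exposure: 48 hours, 5 concentrations, 96-well plates. The concentration for 50% growth inhibition is given as GI50.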 Calls of active or inactive are those of the source. Rule as the data show it: active = GI50 up to about 1.1 µM and inactive = higher.
Key:
Assay in all cases: growth of human tumour cells (NCI), 48 h
U-251 = test system: U-251
COLO 205 = test system: COLO 205
HT-29 = test system: HT-29
Malme-3M = test system: Malme-3M
786-0 = test system: 786-0
SF-539 = test system: SF-539
HL-60 = test system: HL-60
M14 = test system: M14
HCT-15 = test system: HCT-15
BT-549 = test system: BT-549
TK-10 = test system: TK-10
UACC-62 = test system: UACC-62
SK-MEL-5 = test system: SK-MEL-5
OVCAR-3 = test system: OVCAR-3
NCI-H226 = test system: NCI-H226
EKVX = test system: EKVX
NCI-H460 = test system: NCI-H460
DU-145 = test system: DU-145
HOP-62 = test system: HOP-62
HCT-116 = test system: HCT-116
OVCAR-8 = test system: OVCAR-8
UO-31 = test system: UO-31
MDA-N = test system: MDA-N
RPMI-8226 = test system: RPMI-8226
SNB-75 = test system: SNB-75
NCI-H23 = test system: NCI-H23
OVCAR-5 = test system: OVCAR-5
A549 = test system: A549
SF-268 = test system: SF-268
SK-MEL-2 = test system: SK-MEL-2
CAKI-1 = test system: CAKI-1
NCI/ADR-RES = test system: NCI/ADR-RES
SK-MEL-28 = test system: SK-MEL-28
SNB-19 = test system: SNB-19
MOLT-4 = test system: MOLT-4
IGROV-1 = test system: IGROV-1
SF-295 = test system: SF-295
RXF 393 = test system: RXF 393
MCF7 = test system: MCF7
SN12C = test system: SN12C
NCI-H522 = test system: NCI-H522
PC-3 = test system: PC-3
CCRF-CEM = test system: CCRF-CEM
SW-620 = test system: SW-620
SR = test system: SR
ACHN = test system: ACHN
UACC-257 = test system: UACC-257
K562 = test system: K562
HCC 2998 = test system: HCC 2998
KM12 = test system: KM12
OVCAR-4 = test system: OVCAR-4
HOP-92 = test system: HOP-92
MDA-MB-435 = test system: MDA-MB-435
MDA-MB-231 = test system: MDA-MB-231
SK-OV-3 = test system: SK-OV-3
A498 = test system: A498
LOX IMVI = test system: LOX IMVI
T47D = test system: T47D

In the case of `Clc1ccccc1C(SCc1ccccc1)SCc1ccccc1`, the GI50 (U-251) is reported as > 100 µM (inactive), the GI50 (COLO 205) is reported as > 100 µM (inactive) and the GI50 (HT-29) is reported as > 100 µM (inactive). The GI50 (Malme-3M) was > 100 µM (inactive), the GI50 (786-0) was > 100 µM (inactive) and the GI50 (SF-539) was > 100 µM (inactive). For the same compound, the GI50 (HL-60) was 64.7 µM (inactive), the GI50 (M14) was > 100 µM (inactive) and the GI50 (HCT-15) was 75.2 µM. The GI50 (BT-549) was > 100 µM (inactive), the GI50 (TK-10) was > 100 µM (inactive) and the GI50 (UACC-62) was 94.4 µM (inactive). The GI50 (SK-MEL-5) was > 100 µM (inactive), the GI50 (OVCAR-3) was > 100 µM (inactive) and the GI50 (NCI-H226) was > 100 µM (inactive). The GI50 (EKVX) was 39.6 µM (inactive), the GI50 (NCI-H460) was > 100 µM (inactive) and the GI50 (DU-145) was > 100 µM (inactive). The GI50 (HOP-62) was > 100 µM (inactive), the GI50 (HCT-116) was > 100 µM (inactive) and the GI50 (OVCAR-8) was > 100 µM (inactive). The GI50 (UO-31) was > 100 µM (inactive), the GI50 (MDA-N) was > 100 µM (inactive) and the GI50 (RPMI-8226) was > 100 µM (inactive). The GI50 (SNB-75) was 41.8 µM (inactive), the GI50 (NCI-H23) was > 100 µM (inactive) and the GI50 (OVCAR-5) was > 100 µM (inactive). For the same compound, the GI50 (A549) was > 100 µM (inactive), the GI50 (SF-268) was > 100 µM (inactive) and the GI50 (SK-MEL-2) was > 100 µM (inactive). For the same compound, the GI50 (CAKI-1) was > 100 µM (inactive), the GI50 (NCI/ADR-RES) was > 100 µM (inactive) and the GI50 (SK-MEL-28) was > 100 µM (inactive). The GI50 (SNB-19) was > 100 µM (inactive), the GI50 (MOLT-4) was > 100 µM (inactive) and the GI50 (IGROV-1) was > 100 µM (inactive). For the same compound, the GI50 (SF-295) was > 100 µM (inactive), the GI50 (RXF 393) was > 100 µM (inactive) and the GI50 (MCF7) was > 100 µM (inactive). The GI50 (SN12C) was > 100 µM (inactive), the GI50 (NCI-H522) was > 100 µM (inactive) and the GI50 (PC-3) was > 100 µM (inactive). The GI50 (CCRF-CEM) was > 100 µM (inactive), the GI50 (SW-620) was > 100 µM (inactive) and the GI50 (SR) was > 100 µM (inactive). The GI50 (ACHN) was > 100 µM (inactive), the GI50 (UACC-257) was > 100 µM (inactive) and the GI50 (K562) was > 100 µM (inactive). The GI50 (HCC 2998) was > 100 µM (inactive), the GI50 (KM12) was 93.8 µM (inactive) and the GI50 (OVCAR-4) was > 100 µM (inactive). For the same compound, the GI50 (HOP-92) was > 100 µM (inactive).
With `CCCCN(CC)C(=O)C1=C(C)NC(C)=C(C(=O)N(CC)CCCC)C1` the GI50 (U-251) was > 100 µM (inactive), the GI50 (COLO 205) was > 100 µM (inactive) and the GI50 (HT-29) was > 100 µM (inactive). The GI50 (786-0) was > 100 µM (inactive), the GI50 (SF-539) was > 100 µM (inactive) and the GI50 (HL-60) was 89.1 µM (inactive). The GI50 (M14) was > 100 µM (inactive), the GI50 (HCT-15) was over 100 µM and the GI50 (BT-549) was > 100 µM (inactive). The GI50 (TK-10) was > 100 µM (inactive), the GI50 (UACC-62) was 57.7 µM (inactive) and the GI50 (SK-MEL-5) was > 100 µM (inactive). The GI50 (OVCAR-3) was > 100 µM (inactive), the GI50 (NCI-H226) was 88.9 µM (inactive) and the GI50 (EKVX) was > 100 µM (inactive). The GI50 (NCI-H460) was > 100 µM (inactive), the GI50 (DU-145) was > 100 µM (inactive) and the GI50 (MDA-MB-435) was 80 µM (inactive). The GI50 (HOP-62) was > 100 µM (inactive), the GI50 (HCT-116) was > 100 µM (inactive) and the GI50 (OVCAR-8) was > 100 µM (inactive). The GI50 (UO-31) was > 100 µM (inactive), the GI50 (MDA-N) was > 100 µM (inactive) and the GI50 (SNB-75) was 77.1 µM (inactive). The GI50 (NCI-H23) was > 100 µM (inactive), the GI50 (OVCAR-5) was > 100 µM (inactive) and the GI50 (A549) was > 100 µM (inactive). For the same compound, the GI50 (SF-268) was > 100 µM (inactive), the GI50 (SK-MEL-2) was > 100 µM (inactive) and the GI50 (CAKI-1) was > 100 µM (inactive). The GI50 (NCI/ADR-RES) was > 100 µM (inactive), the GI50 (SK-MEL-28) was > 100 µM (inactive) and the GI50 (SNB-19) was > 100 µM (inactive). The GI50 (MOLT-4) was > 100 µM (inactive), the GI50 (MDA-MB-231) was > 100 µM (inactive) and the GI50 (IGROV-1) was 97.7 µM (inactive). The GI50 (SF-295) was > 100 µM (inactive), the GI50 (RXF 393) was > 100 µM (inactive) and the GI50 (MCF7) was > 100 µM (inactive). The GI50 (SK-OV-3) was > 100 µM (inactive), the GI50 (SN12C) was > 100 µM (inactive) and the GI50 (A498) was > 100 µM (inactive). The GI50 (LOX IMVI) was > 100 µM (inactive), the GI50 (SW-620) was > 100 µM (inactive) and the GI50 (T47D) was 62.1 µM (inactive). For the same compound, the GI50 (ACHN) was > 100 µM (inactive), the GI50 (UACC-257) was > 100 µM (inactive) and the GI50 (HCC 2998) was > 100 µM (inactive). The GI50 (KM12) was > 100 µM (inactive), the GI50 (OVCAR-4) was > 100 µM (inactive) and the GI50 (HOP-92) was > 100 µM (inactive).
`c1ccc(OCc2nnc(CCCCCCCCc3nnc(COc4ccccc4)o3)o2)cc1` was tested, and the GI50 (U-251) was 32.2 µM (inactive), the GI50 (COLO 205) was > 100 µM (inactive) and the GI50 (HT-29) was > 100 µM (inactive). For the same compound, the GI50 (786-0) was 47.5 µM (inactive), the GI50 (SF-539) was 32.2 µM (inactive) and the GI50 (HL-60) was > 100 µM (inactive). The GI50 (M14) was > 100 µM (inactive), the GI50 (HCT-15) was over 100 µM and the GI50 (BT-549) was > 100 µM (inactive). For the same compound, the GI50 (TK-10) was > 100 µM (inactive), the GI50 (SK-MEL-5) was > 100 µM (inactive) and the GI50 (OVCAR-3) was 27.8 µM (inactive). The GI50 (NCI-H226) was > 100 µM (inactive), the GI50 (EKVX) was > 100 µM (inactive) and the GI50 (NCI-H460) was > 100 µM (inactive). For the same compound, the GI50 (DU-145) was > 100 µM (inactive), the GI50 (MDA-MB-435) was > 100 µM (inactive) and the GI50 (HOP-62) was 97.3 µM (inactive). For the same compound, the GI50 (HCT-116) was 63.8 µM (inactive), the GI50 (OVCAR-8) was 28.9 µM (inactive) and the GI50 (UO-31) was > 100 µM (inactive). The GI50 (MDA-N) was > 100 µM (inactive), the GI50 (SNB-75) was 28.1 µM (inactive) and the GI50 (NCI-H23) was 65.9 µM (inactive). The GI50 (OVCAR-5) was > 100 µM (inactive), the GI50 (A549) was > 100 µM (inactive) and the GI50 (SF-268) was 99.5 µM (inactive). For the same compound, the GI50 (SK-MEL-2) was > 100 µM (inactive), the GI50 (CAKI-1) was > 100 µM (inactive) and the GI50 (NCI/ADR-RES) was > 100 µM (inactive). The GI50 (SK-MEL-28) was > 100 µM (inactive), the GI50 (SNB-19) was 73.8 µM (inactive) and the GI50 (MOLT-4) was > 100 µM (inactive). For the same compound, the GI50 (MDA-MB-231) was 47.6 µM (inactive), the GI50 (IGROV-1) was > 100 µM (inactive) and the GI50 (SF-295) was > 100 µM (inactive). For the same compound, the GI50 (RXF 393) was 13.2 µM (inactive), the GI50 (MCF7) was > 100 µM (inactive) and the GI50 (SK-OV-3) was 32.8 µM (inactive). For the same compound, the GI50 (SN12C) was > 100 µM (inactive), the GI50 (NCI-H522) was 50.6 µM (inactive) and the GI50 (A498) was > 100 µM (inactive). For the same compound, the GI50 (PC-3) was > 100 µM (inactive), the GI50 (CCRF-CEM) was > 100 µM (inactive) and the GI50 (LOX IMVI) was > 100 µM (inactive). The GI50 (SW-620) was > 100 µM (inactive), the GI50 (ACHN) was > 100 µM (inactive) and the GI50 (UACC-257) was > 100 µM (inactive). The GI50 (K562) was > 100 µM (inactive), the GI50 (HCC 2998) was 28.6 µM (inactive) and the GI50 (KM12) was > 100 µM (inactive). For the same compound, the GI50 (OVCAR-4) was > 100 µM (inactive) and the GI50 (HOP-92) was 55.6 µM (inactive).

Reference: ChEMBL document CHEMBL1201862, “PubChem BioAssay data set” (2004)
